# Assays:
# Assay type in all cases: in vivo
# [1] = tested on: Agrostis tenuis (AGSTE); assay: Herbicidal early post-emergence action (Table A1); conditions: 1900 g/ha; scored visually 9 to 12 days after treatment; 100% = plants have died, 0% = like control plants
# Experimental: (§1) Seeds of monocotyledonous and dicotyledonous weed plants were placed in 96-well microtiter plates in quartz sand and grown in a climatized chamber under controlled growth conditions. 5 to 7 days after sowing, the test plants were treated at the cotyledon stage. The compounds according to the invention, formulated in the form of emulsion concentrates (EC), were applied with a water application rate of the equivalent of 2200 liters per hectare. After the test plants had been left to stand in the climatized chamber for 9 to 12 days under optimum growth conditions, the effect of the preparations was scored visually in comparison to untreated controls. For example, 100% activity=the plants have died, 0% activity=like control plants. Tables A1 to A8 below show the effects of selected compounds of the general formula (I) according to Table 1 on various harmful plants and an application rate corresponding to 1900 g/ha, which were obtained by the experimental procedure mentioned above.
# [2] = tested on: harmful plants AGSTE, DIPTE, LOLPE, MATCH, POAAN, SETVI, STEME and VERPE; assay: Herbicidal early post-emergence action, summary of Tables A1-A8; conditions: application rate of 1900 g of active ingredient per hectare; summary in words
# Experimental: as §1, with “plants.” for “plants. Tables A1 to A8 below show the effects of selected compounds of the general formula (I) according to Table 1 on various harmful plants and an application rate corresponding to 1900 g/ha, which were obtained by the experimental procedure mentioned above.”
# Tables A1 to A8 below show the effects of selected compounds of the general formula (I) according to Table 1 on various harmful plants and an application rate corresponding to 1900 g/ha, which were obtained by the experimental procedure mentioned above.
# As the results of Tables A1-A8 show, compounds no.
# [3] = tested on: Poa annua (POAAN); assay: Herbicidal pre-emergence action, test C (Table C3); conditions: visual scoring after about 3 weeks, 100% = plants have died, 0% = like control plants
# Outline: (§2)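 Application rates of 1280 or 320 g/ha were delivered as WP or EC formulations in water with 0.5% additive, 600 L/ha, onto soil covering freshly sown seeds in sandy loam. Pots stayed under good greenhouse growth conditions, and efficacy was rated as visual percent after about 3 weeks.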
# [4] = tested on: Digitaria sanguinalis (DIGSA); assay: Herbicidal pre-emergence action, test C (Table C10); conditions: dosage 1280 g/ha; visual scoring after about 3 weeks; 100% = plants have died, 0% = like control plants
# Outline: as §2
# [5] = tested on: Veronica persica (VERPE); assay: Herbicidal pre-emergence action, test C (Table C12); conditions: visual scoring vs untreated controls
# Outline: as §2
# [6] = tested on: Bassia scoparia (KCHSC); assay: Herbicidal post-emergence action (Table B11); conditions: dosage 1280 g/ha; visual rating about 3 weeks after treatment; 100% = plants have died, 0% = like control plants
# Outline: (§3)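 Activity was scored visually against untreated plants roughly 3 weeks after treatment, 0% meaning like control and 100% plant death. Application was post-emergence onto green parts at the one-leaf stage, as aqueous suspension/emulsion with 0.5% additive, 600 l/ha, delivering 1280 or 320 g/ha to greenhouse plants in sandy loam.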
# [7] = tested on: Amaranthus retroflexus (AMARE); assay: Herbicidal post-emergence action (Table B6); conditions: visual rating about 3 weeks after treatment, 100% = plants have died, 0% = like control plants
# Outline: as §3
# [8] = tested on: Abutilon theophrasti (ABUTH); assay: Herbicidal pre-emergence action, test C (Table C5); conditions: dosage 1280 g/ha; visual scoring after about 3 weeks; 100% = plants have died, 0% = like control plants
# Outline: as §2
# [9] = tested on: Setaria viridis (SETVI); assay: Herbicidal pre-emergence action, test C (Table C4); conditions: dosage 1280 g/ha; visual scoring after about 3 weeks; 100% = plants have died, 0% = like control plants
# Outline: as §2
# [10] = tested on: Lolium rigidum (LOLRI); assay: Herbicidal pre-emergence action, test C (Table C2); conditions: dosage 1280 g/ha; visual scoring after about 3 weeks; 100% = plants have died, 0% = like control plants
# Excerpt: Seeds of mono- and dicotyledonous weed plants were placed in plastic pots in sandy loam soil (doubly sown with one species each of mono- or dicotyledonous weed plants per pot) and covered with soil. The compounds of the invention, formulated in the form of wettable powders (WP) or as emulsion concentrates (EC), were then applied onto the surface of the covering soil as aqueous suspension or emulsion with addition of 0.5% additive at a water application rate of 600 liters per hectare (converted). After the treatment, the pots were placed in a greenhouse and kept under good growth conditions for the test plants. After about 3 weeks, the effect of the preparations was scored visually in comparison with untreated controls as percentages. For example, 100% activity=the plants have died, 0% activity=like control plants. Tables C1 to C12 below show the effects of selected compounds of the general formula (I) according to Table 1 on various harmful plants and an application rate corresponding to 1280 or 320 g/ha, which were obtained by the experimental procedure mentioned above.
# [11] = tested on: harmful plants ABUTH, AMARE, ECHCG, LOLRI, MATIN, POAAN, SETVI, STEME, ALOMY, DIGSA, KCHSC and VERPE; assay: Herbicidal post-emergence action, summary of Tables B1-B12; conditions: application rate of 1280 or 320 g of active ingredient per hectare; summary in words
# Outline: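 Activity scored by eye roughly 3 weeks post-treatment against untreated plants, from 0% (no effect) to 100% (plants dead). Application rates were 1280 or 320 g/ha, as aqueous WP/EC spray plus 0.5% additive at 600 L/ha, onto one-leaf-stage weeds grown 2–3 weeks in sandy loam.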
# [12] = tested on: Veronica persica (VERPE); assay: Herbicidal post-emergence action (Table B12); conditions: visual rating about 3 weeks after treatment, 100% = plants have died, 0% = like control plants
# Outline: as §3
# [13] = tested on: Stellaria media (STEME); assay: Herbicidal pre-emergence action, test C (Table C8); conditions: dosage 1280 g/ha; visual scoring after about 3 weeks; 100% = plants have died, 0% = like control plants
# Outline: as §2
# [14] = tested on: Stellaria media (STEME); assay: Herbicidal post-emergence action (Table B8); conditions: dosage 1280 g/ha; visual rating about 3 weeks after treatment; 100% = plants have died, 0% = like control plants
# Outline: as §3
# [15] = tested on: Amaranthus retroflexus (AMARE); assay: Herbicidal pre-emergence action, test C (Table C6); conditions: visual scoring after about 3 weeks, 100% = plants have died, 0% = like control plants
# Outline: as §2
# [16] = tested on: harmful plants ABUTH, AMARE, ECHCG, LOLRI, MATIN, POAAN, SETVI, STEME, ALOMY, DIGSA, KCHSC and VERPE; assay: Herbicidal pre-emergence action (test C), summary of Tables C1-C12; conditions: application rate of 1280 or 320 g of active ingredient per hectare; summary in words
# Outline: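 Visual % damage versus untreated plants (0% = like control, 100% = died) was scored after about 3 weeks in the greenhouse. Before emergence, seeds sown in sandy loam got a soil-surface spray of compound as WP or EC plus 0.5% additive, using 600 L/ha water at rates of 1280 or 320 g/ha.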
# [17] = tested on: Matricaria inodora (MATIN); assay: Herbicidal pre-emergence action, test C (Table C7); conditions: dosage 1280 g/ha; visual scoring after about 3 weeks; 100% = plants have died, 0% = like control plants
# Outline: as §2
smiles,measurement,setting,value
Fc1cccc(Oc2ncc(C(F)(F)F)cc2Cl)c1-c1cc(C(F)F)on1 [Example 1-13],Early post-emergence effect against Agrostis tenuis (AGSTE),[1],80%
same,herbicidal activity against the harmful plants of Tables A1-A8 in early post-emergence treatment,[2],very good herbicidal activity
Fc1ccc(Oc2ccc(Cl)cn2)c(-c2cc(C(F)F)on2)c1 [Example 1-30],Early post-emergence effect against Agrostis tenuis (AGSTE),[1],80%
same,herbicidal activity against the harmful plants of Tables A1-A8 in early post-emergence treatment,[2],very good herbicidal activity
Oc1ccc(-c2cc(C(F)F)no2)c(Oc2ccc(Cl)cn2)c1 [Example 1-42],Early post-emergence effect against Agrostis tenuis (AGSTE),[1],80%
same,herbicidal activity against the harmful plants of Tables A1-A8 in early post-emergence treatment,[2],very good herbicidal activity
FC(F)(F)c1cccc(-c2ccccc2Oc2ccccn2)n1 [Example 1-50],Early post-emergence effect against Agrostis tenuis (AGSTE),[1],80%
same,herbicidal activity against the harmful plants of Tables A1-A8 in early post-emergence treatment,[2],very good herbicidal activity
Cn1nc(-c2c(F)cccc2Oc2ccc(Cl)cn2)cc1C(F)F [Example 1-64],Pre-emergence action against Poa annua (POAAN),[3]; dosage 320 g/ha,90%
same,Pre-emergence action against Poa annua (POAAN),[3]; dosage 1280 g/ha,100%
same,Pre-emergence action against Digitaria sanguinalis (DIGSA),[4],90%
same,Pre-emergence action against Veronica persica (VERPE),[5]; dosage 320 g/ha,90%
same,Pre-emergence action against Veronica persica (VERPE),[5]; dosage 1280 g/ha,100%
same,Post-emergence action against Bassia scoparia (KCHSC),[6],90%
same,Post-emergence action against Amaranthus retroflexus (AMARE),[7]; dosage 320 g/ha,100%
same,Post-emergence action against Amaranthus retroflexus (AMARE),[7]; dosage 1280 g/ha,100%
same,Pre-emergence action against Abutilon theophrasti (ABUTH),[8],90%
same,Pre-emergence action against Setaria viridis (SETVI),[9],100%
same,Pre-emergence action against Lolium rigidum (LOLRI),[10],90%
same,herbicidal activity against the harmful plants of Tables B1-B12 in post-emergence treatment,[11],very good herbicidal activity
same,Post-emergence action against Veronica persica (VERPE),[12]; dosage 320 g/ha,90%
same,Post-emergence action against Veronica persica (VERPE),[12]; dosage 1280 g/ha,90%
same,Pre-emergence action against Stellaria media (STEME),[13],100%
same,Post-emergence action against Stellaria media (STEME),[14],100%
same,Pre-emergence action against Amaranthus retroflexus (AMARE),[15]; dosage 320 g/ha,100%
same,Pre-emergence action against Amaranthus retroflexus (AMARE),[15]; dosage 1280 g/ha,100%
same,herbicidal activity against the harmful plants of Tables C1-C12 in pre-emergence treatment,[16],very good herbicidal activity
same,Pre-emergence action against Matricaria inodora (MATIN),[17],90%
Cn1nc(C(F)F)cc1-c1c(F)cccc1Oc1ncc(Cl)cc1F [Example 1-82],Early post-emergence effect against Agrostis tenuis (AGSTE),[1],80%
same,herbicidal activity against the harmful plants of Tables A1-A8 in early post-emergence treatment,[2],very good herbicidal activity
